According to US9718840B2, “Condensed 5-oxazolidinone derivative” (SUMITOMO DAINIPPON PHARMA CO., LTD., priority 2014, dated 2017):

What was measured:
[1] = test system: Rabbit nail bleeding models; assay: Effect of combined use with antiplatelet drug using rabbit nail bleeding model; format: in vivo; settings: alone, dose 0.67 + 1.0 mg/kg + mg/kg/h i.v.
Procedure: Rabbit nail bleeding models were prepared by a modification of the report of Wong et al. (Wong P C. et al., J. Thromb. Haemost. 7: 1313-1320 (2009)). Male rabbits (JW, 1.5 to 3.5 kg) were anesthetized by the inhalation of isoflurane (ISOFLU®, manufactured by DS Pharma Animal Health Co., Ltd.) (introduced anesthesia: 4%, continuous anesthesia: 2 to 3%). For the intravenous administration of a test drug or a vehicle, an indwelling needle was inserted to the auricular vein, and the test drug or the vehicle was promptly intravenously administered (0.67 mL/kg) and then continuously intravenously administered (1 mL/kg/hr). One hour after the start of administration, three posterior toenails were cut and dipped in saline heated to approximately 37° C., and the bleeding time was measured. The bleeding time was defined as a time from the cutting to the arrest of bleeding, and an average value from the three nails was used. The measurement time was 60 minutes at the maximum. If bleeding for 60 minutes or longer was confirmed, the bleeding time was regarded as 60 minutes.

[2] = test system: Rabbit venous thrombus models; assay: Effect of combined use with antiplatelet drug using rabbit AVST model; format: in vivo; settings: alone, dose 0.67 + 1.0 mg/kg + mg/kg/h i.v.
Procedure: Rabbit venous thrombus models were prepared by a modification of the report of Wong et al. (Wong P C. et al., J. Pharmacol. Exp. Ther. 292: 351-357 (2000)). […] A tracheostomy tube was inserted to each rabbit, which was then ventilated using a respirator. For the intravenous administration of a test drug and blood collection, catheters were inserted to the right femoral vein and the right femoral artery, respectively. An arteriovenous shunt filled with saline was inserted to the carotid artery and the jugular vein. […] Also, 4-0 silk thread having a length of 5 cm was indwelled in the arteriovenous shunt. Blood was sent for 30 minutes from the carotid artery to the jugular vein via the arteriovenous shunt. The shunt was removed, and the weight of the silk thread covered with thrombus was measured. The weight of the silk thread measured before the experiment was subtracted from the measured weight, and the obtained value was used as a wet thrombus weight. One hour before the open of the arteriovenous shunt, the test drug or a vehicle was promptly intravenously administered (0.67 mL/kg) and then continuously intravenously administered (1 mL/kg/hr). The continuous injection was continued throughout the experiment. […] STA calcium chloride (manufactured by Roche Diagnostics K.K.) was added in an amount equal thereto, and the time required for coagulation was measured.

male cynomolgus monkey = assay: Cynomolgus monkey aPTT evaluation test; format: in vivo
Procedure: The compound of Example 7 was suspended in a 0.5% aqueous methylcellulose solution, and this suspension was orally administered at a dose of 10 mg/5 mL/kg or 30 mg/5 mL/kg to a male cynomolgus monkey fasted for 16 hours. Blood collection for aPTT evaluation was carried out before administration and 0.5, 1, 2, 4, 6, and 24 hours after administration. 0.9 mL of blood was collected using a syringe packed with 100 μL of 3.2% sodium citrate, transferred to a centrifugal tube cooled in ice, and centrifuged at 2100 g at 4° C. for 10 minutes to prepare plasma. After incubation at 37° C. for 6 minutes, an STA reagent Cephascreen (for aPTT assay; manufactured by Roche Diagnostics K.K.) was added in an amount equal to the amount of the plasma, and the mixture was further incubated for 4 minutes. STA calcium chloride (manufactured by Roche Diagnostics K.K.) was added in an amount equal to the amount of the plasma, and the time required for coagulation was measured. Blood collection for the measurement of the compound concentration was carried out 0.5, 1, 2, 4, 6, and 24 hours after administration. 1 mL of blood was collected using a syringe packed with 10 μL of Novo-Heparin Injection, transferred to a centrifugal tube cooled in ice, and centrifuged at 2100 g at 4° C. for 10 minutes to prepare plasma. 200 μL of the prepared plasma was added to a tube containing 600 μL of acetonitrile and mixed for approximately 10 seconds using a vortex mixer. Then, the concentration of the compound of Reference Example 2-6 (a value based on the free form) was measured.

[3] = Ester metabolism stability test: metabolite identification by LC-MS
Text: The metabolites were identified using LC (LC-Nexera X2 manufactured by Shimadzu Corp.)-MS (API4000 manufactured by AB Sciex Pte Ltd.).

[4] = Ester metabolism stability test: stability in human liver; format: in vitro ADME; settings: 37° C., 20 minutes, with NADPH
Procedure: A reaction solution containing 5 μL of human liver S9 (manufactured by Sekisui XenoTech, LLC, 20 mg/mL) mixed with 20 μL of 500 mmol/L Kpi (pH 7.4), 40 μL of a 5 mmol/L aqueous solution of NADPH (manufactured by Oriental Yeast Co., Ltd.), and 133 μL of ion-exchange water was added to 2 μL of a DMSO solution containing a 100 μmol/L test substance, and the mixture was incubated at 37° C. for 20 minutes. After the incubation, the metabolic reaction was terminated by the addition of 600 μL of acetonitrile.

human plasma = assay: Ester metabolism stability test: stability in human plasma; format: in vitro ADME; settings: 37° C., 20 minutes
Procedure: 198 μL of human plasma (manufactured by Cosmo Bio Inc.) was added to 2 μL of a DMSO solution containing a 100 μmol/L test substance, and the mixture was incubated at 37° C. for 20 minutes. After the incubation, the metabolic reaction was terminated by the addition of 600 μL of acetonitrile.

[5] = oral 10 mg/kg, 0 hr (before administration)
[6] = oral 30 mg/kg, 0 hr (before administration)
[7] = metabolites identified using LC-MS

CC(=O)Oc1ccccc1C(=O)O [Aspirin]
Bleeding time ([1]; rabbit, maximum 60 minutes): 1087 ± 522 s | Bleeding time (fold-increase) ([1]; ratio to vehicle group average): 1.9 ± 0.9 fold-increase | PT (ratio) [2]: 0.99 ± 0.01 ratio | Thrombus weight [2]: 96 ± 9 mg | aPTT (ratio) [2]: 0.97 ± 0.01 ratio

Cl.N[C@H](CF)[C@H]1CC[C@H](C(=O)N2CC[C@@H](C3CCCCC3)[C@H]2C(=O)Nc2ccc3c(c2)cc2n3C3(CCC3)OC2=O)CC1 [Example 7, (3S)-1-({trans-4-[(1S)-1-amino-2-fluoroethyl]cyclohexyl}carbonyl)-3-cyclohexyl-N-(1′-oxo-1′H-spiro[cyclobutane-1,3′-[1,3]oxazolo[3,4-a]indol]-7′-yl)-L-prolinamide hydrochloride]
aPTT (male cynomolgus monkey; [5]): 23.8 ± 2.2 s | aPTT (ratio) (male cynomolgus monkey; [5]): 1.00 ± 0.00 ratio | aPTT (male cynomolgus monkey; oral 10 mg/kg, 0.5 hr): 26.9 ± 3.3 s | aPTT (ratio) (male cynomolgus monkey; oral 10 mg/kg, 0.5 hr): 1.13 ± 0.03 ratio | aPTT (male cynomolgus monkey; oral 10 mg/kg, 1 hr): 30.5 ± 3.0 s | aPTT (ratio) (male cynomolgus monkey; oral 10 mg/kg, 1 hr): 1.29 ± 0.04 ratio | aPTT (male cynomolgus monkey; oral 10 mg/kg, 2 hr): 36.5 ± 4.1 s | aPTT (ratio) (male cynomolgus monkey; oral 10 mg/kg, 2 hr): 1.53 ± 0.07 ratio | aPTT (male cynomolgus monkey; oral 10 mg/kg, 4 hr): 38.5 ± 3.5 s | aPTT (ratio) (male cynomolgus monkey; oral 10 mg/kg, 4 hr): 1.62 ± 0.00 ratio | aPTT (male cynomolgus monkey; oral 10 mg/kg, 6 hr): 37.5 ± 4.5 s | aPTT (ratio) (male cynomolgus monkey; oral 10 mg/kg, 6 hr): 1.57 ± 0.06 ratio | aPTT (male cynomolgus monkey; oral 10 mg/kg, 24 hr): 26.1 ± 3.2 s | aPTT (ratio) (male cynomolgus monkey; oral 10 mg/kg, 24 hr): 1.10 ± 0.06 ratio | aPTT (male cynomolgus monkey; [6]): 23.9 ± 1.6 s | aPTT (ratio) (male cynomolgus monkey; [6]): 1.00 ± 0.00 ratio | aPTT (male cynomolgus monkey; oral 30 mg/kg, 0.5 hr): 27.6 ± 3.2 s | aPTT (ratio) (male cynomolgus monkey; oral 30 mg/kg, 0.5 hr): 1.15 ± 0.10 ratio | aPTT (male cynomolgus monkey; oral 30 mg/kg, 1 hr): 32.8 ± 2.8 s | aPTT (ratio) (male cynomolgus monkey; oral 30 mg/kg, 1 hr): 1.37 ± 0.03 ratio | aPTT (male cynomolgus monkey; oral 30 mg/kg, 2 hr): 36.9 ± 0.8 s | aPTT (ratio) (male cynomolgus monkey; oral 30 mg/kg, 2 hr): 1.55 ± 0.07 ratio | aPTT (male cynomolgus monkey; oral 30 mg/kg, 4 hr): 39.4 ± 1.4 s | aPTT (ratio) (male cynomolgus monkey; oral 30 mg/kg, 4 hr): 1.65 ± 0.12 ratio | aPTT (male cynomolgus monkey; oral 30 mg/kg, 6 hr): 39.4 ± 1.5 s | aPTT (ratio) (male cynomolgus monkey; oral 30 mg/kg, 6 hr): 1.65 ± 0.12 ratio | aPTT (male cynomolgus monkey; oral 30 mg/kg, 24 hr): 34.0 ± 3.3 s | aPTT (ratio) (male cynomolgus monkey; oral 30 mg/kg, 24 hr): 1.42 ± 0.05 ratio | Metabolite formed (conversion by metabolism) [3, 7]: converted to the compound of Reference Example 2-6 | Residual rate (%) Human liver S9 [4]: 71% | Residual rate (%) Human plasma (human plasma): <1%

CC1(C)OC(=O)c2cc3cc(NC(=O)[C@@H]4[C@H](N5CCCCC5)CCN4C(=O)[C@H]4CC[C@H]([C@H](N)CF)CC4)ccc3n21 [Example 15, (2S,3R)-1-({trans-4-[(1S)-1-Amino-2-fluoroethyl]cyclohexyl}carbonyl)-N-(3,3-dimethyl-1-oxo-1H-[1,3]oxazolo[3,4-a]indol-7-yl)-3-(piperidin-1-yl)pyrrolidine-2-carboxamide 2-trifluoroacetate]
Metabolite formed (conversion by metabolism) ([3]; human, 20 min, 1 μmol/L): Example 25 | Residual rate (%) Human liver S9 [4]: 82% | Residual rate (%) Human plasma (human plasma): 14%

CC1(C)OC(=O)c2cc3cc(NC(=O)[C@@H]4[C@H](C5CCCCC5)CCN4C(=O)[C@H]4CC[C@H](CN)CC4)ccc3n21.Cl [Example 17, (3S)-1-{[trans-4-(aminomethyl)cyclohexyl]carbonyl}-3-cyclohexyl-N-(3,3-dimethyl-1-oxo-1H-[1,3]oxazolo[3,4-a]indol-7-yl)-L-prolinamide]
Metabolite formed (conversion by metabolism) ([3]; human, 20 min, 1 μmol/L): converted to the compound of Example 23 | Residual rate (%) Human liver S9 [4]: >99% | Residual rate (%) Human plasma (human plasma): 50%

Cl.NC[C@H]1CC[C@H](C(=O)N2CC[C@@H](C3CCCCC3)[C@H]2C(=O)Nc2ccc3c(c2)cc2n3C(CF)(CF)OC2=O)CC1 [Example 18]
Metabolite formed (conversion by metabolism) ([3]; human, 20 min, 1 μmol/L): converted to the compound of Example 23 | Residual rate (%) Human liver S9 [4]: 78% | Residual rate (%) Human plasma (human plasma): 15%

CC1(C)OC(=O)c2cc3cc(NC(=O)[C@@H]4[C@H](c5ccccc5)CCN4C(=O)[C@H]4CC[C@H]([C@H](N)CF)CC4)ccc3n21.Cl [Example 19, (3S)-1-({trans-4-[(1S)-1-amino-2-fluoroethyl]cyclohexyl}carbonyl)-N-(3,3-dimethyl-1-oxo-1H-[1,3]oxazolo[3,4-a]indol-7-yl)-3-phenyl-L-prolinamide]
Metabolite formed (conversion by metabolism) [3, 7]: Reference Example 19-1 | Residual rate (%) Human liver S9 [4]: 93% | Residual rate (%) Human plasma (human plasma): 15%

CC1(C)OC(=O)c2cc3cc(NC(=O)[C@@H]4[C@@H](c5ccccc5)CCN4C(=O)[C@H]4CC[C@H]([C@H](N)CF)CC4)ccc3n21.Cl [Example 20, (3R)-1-({trans-4-[(1S)-1-amino-2-fluoroethyl]cyclohexyl}carbonyl)-N-(3,3-dimethyl-1-oxo-1H-[1,3]oxazolo[3,4-a]indol-7-yl)-3-phenyl-L-prolinamide]
Metabolite formed (conversion by metabolism) [3, 7]: Reference Example 20-5 | Residual rate (%) Human liver S9 [4]: 93% | Residual rate (%) Human plasma (human plasma): 11%
